From article PMC10821532, “Sex and Cross-Sex Testosterone Treatment Alters Gamma-Hydroxybutyrate Acid Toxicokinetics and Toxicodynamics in Rats” (Pharmaceutics, 2024)
Where two headings read alike, the source gives them in different places.

Assay: GHB toxicokinetic study, i.v. bolus, plasma and urine up to 8 h, noncompartmental analysis
Format: in vivo, Sprague Dawley rats
Settings: for clearance / CL renal: Sprague Dawley, rat, iv; for CL renal: read-out: CLR - Renal clearance
Experimental: Male and female Sprague Dawley (SD) rats, ovariectomized (OVX) females, and castrated (CST) males were obtained from Charles River (Wilmington, MA, USA) at 8 weeks of age. The animals were housed under controlled temperature and humidity with an artificial 12 h light/dark cycle, and food and water were available ad libitum. The animals were acclimatized for at least one week before experiments. Hormone treatment was conducted by implanting OVX female and CST male rats subcutaneously with 60-day release pellets containing 7.5 mg testosterone or corresponding placebo pellets (Innovative Research of America) at 10 weeks of age. After 21 days of hormone exposure, rats were utilized in toxicokinetic studies. Age-matched male and female rats were used as control groups. Female rats in the estrus stage were selected for the study. Estrus cycle stages of female rats were monitored daily by vaginal lavage smear, as described in previously published literature. The Institutional Animal Care and Use Committee (IACUC) at the University of the Pacific approved all experiments.
Jugular vein cannulas were surgically implanted under anesthesia with ketamine/xylazine. Cannulas were flushed daily with heparinized saline to maintain patency. Rats were allowed a minimum of 72 h for recovery from surgery before the experiments were conducted. GHB was administered intravenously as a 1000 mg/kg i.v. bolus or 1500 mg/kg iv bolus with or without AR-C155858 (1 mg/kg i.v. bolus) via a jugular vein cannula to the animals at 13 weeks of age (N = 5–7 per group). Rats were dosed in metabolic cages with ad libitum access to water to allow for the concurrent collection of blood and urine samples for up to 8 h. GHB was administered as a 300 mg/mL solution in sterile water, and the time of administration was considered as time 0. AR-C155858 was administered as a 1 mg/mL solution in 10% cyclodextrin in normal saline 5 min after GHB administration. Blood samples (200 μL) were taken from the jugular vein cannula at different time points: 5, 10, 20, 30, 60, 90, 120, 180, 240, 270, 300, and 330 min for 1000 mg/kg and 10, 30, 60, 90, 120, 180, 240, 270, 300, 330, 360, and 390/480 min for 1500 mg/kg bolus with or without AR-C155858. Plasma samples were separated by centrifugation and stored at −20 °C. Urine samples were collected at 120, 240, and 360 min for 1000 mg/kg and 120, 240, and 390/480 min for 1500 mg/kg bolus with or without AR-C155858 post-dose; the total urine volume was determined, and the samples were stored at −20 °C.
GHB in plasma and urine were quantified using a validated liquid chromatography/tandem mass spectrometry (LC/MS/MS) assay that was described previously. Briefly, for the preparation of plasma standards and quality controls (QCs), 5 μL of GHB-d6 and 5 μL of standard stock solution or QC stock solution were added to 45 μL of blank plasma. For each unknown plasma sample, 5 μL of GHB-d6 was added to 50 μL of plasma. Protein precipitation was then performed by the addition of 800 μL of acetonitrile with 0.1% formic acid, followed by centrifugation at 10,000 rpm for 20 min. 750 μL of the supernatant was transferred to a clean disposable glass tube and evaporated using a MultiVap Nitrogen Evaporator (Organomation, Berlin, MA, USA) under a nitrogen stream. Dried samples were reconstituted in 250 μL of 95:5 double-distilled water—acetonitrile with 0.1% acetic acid. For urine standards and QCs, 25 μL of blank urine, 5 μL of standard or QC stock solution, 5 μL of GHB-d6, and 465 μL of double-distilled water were mixed. For unknown urine samples, 25 μL of the sample was added to 5 μL of GHB-d6 and 470 μL of double-distilled water. The same LC/MS/MS method was used for GHB plasma and urine analyses. LC/MS/MS equipment consisted of an Agilent 1200 series UPLC consisting of an online degasser, binary pump, and autosampler (Agilent Technologies, Santa Clara, CA, USA) connected to a Agilent 6460 Triple Quad Mass Spectrometer. […]

[1] = 1000 mg/kg GHB iv, OVX testosterone rats
[2] = 1000 mg/kg GHB iv, intact female (estrus) rats
[3] = 1000 mg/kg GHB iv, intact male rats
[4] = 1500 mg/kg GHB + 1mg/kg AR-C 155858 iv, CST testosterone placebo rats
[5] = 1500 mg/kg GHB + 1mg/kg AR-C 155858 iv, CST testosterone rats
[6] = 1500 mg/kg GHB + 1mg/kg AR-C 155858 iv, OVX testosterone placebo rats
[7] = 1500 mg/kg GHB + 1mg/kg AR-C 155858 iv, OVX testosterone rats
[8] = 1500 mg/kg GHB + 1mg/kg AR-C 155858 iv, intact female (estrus) rats
[9] = 1500 mg/kg GHB + 1mg/kg AR-C 155858 iv, intact male rats
[10] = 1500 mg/kg GHB iv, CST testosterone placebo rats
[11] = 1500 mg/kg GHB iv, CST testosterone rats
[12] = 1500 mg/kg GHB iv, OVX testosterone placebo rats
[13] = 1500 mg/kg GHB iv, OVX testosterone rats
[14] = 1500 mg/kg GHB iv, intact female (estrus) rats
[15] = 1500 mg/kg GHB iv, intact male rats

Structure (SMILES): O=C(O)CCCO [GHB, Γ-hydroxybutyric acid]
- AUC - Area under the curve of plasma concentration versus time profile (1000 mg/kg GHB iv, CST testosterone placebo rats): 222 ± 40.7 mg·min/mL
- AUC - Area under the curve of plasma concentration versus time profile (1000 mg/kg GHB iv, CST testosterone rats): 197 ± 35.5 mg·min/mL
- AUC - Area under the curve of plasma concentration versus time profile (1000 mg/kg GHB iv, OVX testosterone placebo rats): 181 ± 10.6 mg·min/mL
- AUC - Area under the curve of plasma concentration versus time profile [1]: 169 ± 25.9 mg·min/mL
- CL - Total clearance [1]: 6.0 ± 0.8 mL/min/kg
- AUC - Area under the curve of plasma concentration versus time profile [2]: 150 ± 16.6 mg·min/mL
- fe – The fraction of drug eliminated from urine [2]: 0.39 ± 0.07
- AUC - Area under the curve of plasma concentration versus time profile [3]: 224 ± 39.8 mg·min/mL
- fe – The fraction of drug eliminated from urine [3]: 0.48 ± 0.06
- AUC [4]: 195 ± 29.6 mg·min/mL
- fe (fraction of drug eliminated in urine) [4]: 0.69 ± 0.13
- AUC [5]: 207 ± 40.4 mg·min/mL
- fe (fraction of drug eliminated in urine) [5]: 0.74 ± 0.03
- AUC [6]: 162 ± 34.8 mg·min/mL
- fe (fraction of drug eliminated in urine) [6]: 0.73 ± 0.05
- AUC [7]: 163 ± 24.9 mg·min/mL
- fe (fraction of drug eliminated in urine) [7]: 0.75 ± 0.09
- AUC [8]: 184 ± 36.3 mg·min/mL
- fe (fraction of drug eliminated in urine) [8]: 0.73 ± 0.07
- AUC [9]: 185 ± 13.2 mg·min/mL
- fe (fraction of drug eliminated in urine) [9]: 0.74 ± 0.03
- AUC [10]: 309 ± 23.8 mg·min/mL
- fe (fraction of drug eliminated in urine) [10]: 0.60 ± 0.05
- AUC [11]: 496 ± 97.6 mg·min/mL
- fe (fraction of drug eliminated in urine) [11]: 0.44 ± 0.09
- AUC [12]: 271 ± 47.0 mg·min/mL
- fe (fraction of drug eliminated in urine) [12]: 0.62 ± 0.08
- AUC [13]: 290 ± 122.7 mg·min/mL
- CL (total clearance) [13]: 6.1 ± 2.4 mL/min/kg
- fe (fraction of drug eliminated in urine) [13]: 0.41 ± 0.09
- AUC [14]: 336 ± 78.8 mg·min/mL
- fe (fraction of drug eliminated in urine) [14]: 0.78 ± 0.12
- AUC [15]: 343 ± 117.8 mg·min/mL
- fe (fraction of drug eliminated in urine) [15]: 0.87 ± 0.07
- clearance (both sexes, plasma, 1500 mg/kg, 1500 mg/kg GHB iv, animal groups other than testosterone-treated OVX rats, read-out: Metabolic clearance, other animal groups): < 2.2 mL/min/kg
- CL renal (female, plasma and urine, 1000 mg/kg, 1000 mg/kg GHB iv, OVX testosterone placebo rats): 2.4 ± 0.1 mL/min/kg
- clearance (female, plasma and urine, 1000 mg/kg, 1000 mg/kg GHB iv, OVX testosterone placebo rats, read-out: CLm – Metabolic clearance): 3.1 ± 0.3 mL/min/kg
- CL renal (female, plasma and urine, 1000 mg/kg, 1000 mg/kg GHB iv, OVX testosterone rats): 2.4 ± 0.7 mL/min/kg
- clearance (female, plasma and urine, 1000 mg/kg, 1000 mg/kg GHB iv, OVX testosterone rats, read-out: CLm – Metabolic clearance): 3.6 ± 0.6 mL/min/kg
- CL renal (female, plasma and urine, 1000 mg/kg, 1000 mg/kg GHB iv, intact female (estrus) rats): 2.6 ± 0.5 mL/min/kg
